Test results: patent publication US10905757B2, “Cross-reactive T cell epitopes of HIV, SIV, and FIV for vaccines in humans and cats” (priority 2012, dated 2021)
“Also recorded” adds a separate entry of the source. Ends that are not written are not given here.

Key:
Assay type in all cases: cell-based, human
[1] = tested on: CD3+CD4+ T cells from HIV+ subjects; assay: CFSE-proliferation, CD3+CD4+ T cells from HIV+ subjects; conditions: for CD4^+ T-cell Responder Frequency: responders/tested
Description: (§1) 2×10^5-5×10^5 CFSE labeled PBMCs were incubated with 15-20 μg of peptides in 600 μL of RPMI media with 10% FBS for 5 days at 37° C. (5% CO2). After harvesting, they were labeled with allophycocyanin (APC), APC-H7, and Pacific Blue labeled monoclonal antibodies (MAb) to human CD3, CD4, and CD8, respectively and analyzed for T-cell proliferation by flow cytometry using BD LSRII (BD Biosciences). The proliferating CD4^+ or CD8^+ T cell populations were defined from the CD3^+ cell population as either CD3^+CD8^+ or CD3^+CD4^+T cells (mutually exclusive) with low CFSE (CFSE^low) staining.
(§2) Flow cytometry (FACS) for carboxyfluoresein diacetate succinimide ester (CFSE)-proliferation and intracellular cytotoxin staining (ICS). The CFSE-proliferation analysis was performed on PBMC according to the manufacturer's protocol (Invitrogen, Carlsbad, Calif.) and processed as previously described (Lichterfeld et al. (2004)). Modifications consisted of using 2.0-5.0×10^5 CFSE-labeled cells stimulated for 5 days (37° C., 5% CO^2) with 30 μg/well of total peptides in a pool (15 μg/well for individual peptide, Table 10) or 5 μg/mL PHA in AIM V medium containing 25 μg/mL of gentamycin and 10% heat-inactivated human serum. Subsequently these cells were harvested and labeled with the LIVE/DEAD fixable yellow dye (Invitrogen) and then treated 5 min with anti-CD16/CD32 antibody (Biolegend, San Diego, Calif.) for blocking non-specific binding before phenotype-specific antibodies. The following antibodies were used for the CFSE-proliferation analysis: anti-CD4 APC, anti-CD3 APC-H7, and anti-CD8 Pacific Blue (BD Biosciences, San Jose, Calif.).
(§3) In both analyses, 1.0-2.0×10^4 cells were fixed in phosphate-buffered saline (PBS) containing 2% paraformaldehyde and analyzed on BD LSRII using […] Software (BD Biosciences), with a positive threshold of 3% CFSE^low for CFSE-proliferation and 1% T cells expressing cytotoxin for ICS. The final value for each subject was derived after subtraction of the subject's medium control and the average value of peptide-stimulated cells from uninfected control subjects.
(§4) Flow cytometry (FACS) for measuring CFSE-proliferation and intracellular cytokine staining (ICS). Carboxyfluorescein diacetate succinimide ester (CFSE)-proliferation analysis was performed according to the manufacturer's protocol (Invitrogen) and processed as previously described (Lichterfeld et al. 2004) using the following modification: 2.5-5.0×10^5 CFSE-labeled PBMC stimulated for 4-5 days (37° C., 5% CO2) with 15-30 μg of peptides in culture media (AIM V medium, 25 μg/mL gentamycin, and 10% heat-inactivated fetal bovine serum). The ICS analysis was performed as previously described (Horton et al. 2007; Pattacini et al. 2012).
(§5) The antibodies used for the proliferation analysis consisted of anti-CD4 allophycocyanin (APC) anti-CD3 APC-H7, and anti-CD8 Pacific Blue, and those for ICS were anti-CD3 APC-H7, anti-CD4 BD Horizon V450, anti-CD8 FITC, anti-granzyme B (GrzB) Alexa 700, anti-granzyme A (GrzA) PE (BD Biosciences, Cat #555349, 560176, 558207, 560345, 555366, 560213, 558904), and anti-perforin PerCP (Abcam, Cat #ab86319). Both analyses were performed with BD LSRII and […]™ Software (BD Biosciences), using a positive threshold of >1% CFSE^low for CFSE-proliferation except for ICS studies with threshold of >0.1% T cells expressing cytotoxin. The final value for each subject was derived after subtracting the result of each HIV^+ subject with the media control followed by subtraction with the average response of the media-control subtracted HIV^− subjects.

[2] = tested on: CD3+CD8+ T cells from HIV+ subjects; assay: CFSE-proliferation, CD3+CD8+ T cells from HIV+ subjects; conditions: for CD8^+ T-cell Responder Frequency: responders/tested; for responder frequency of CD8+ T-cell proliferation to individual F3 peptides: eight F3 responders
Description: as §1, §2, §3, §4, §5

[3] = tested on: CD4+ or CD8+ T cells from HIV+ subjects; assay: Intracellular cytotoxin staining (ICS), CD4+ or CD8+ T cells from HIV+ responders; conditions: for cytotoxin and CD107a expression in CD4+ and CD8+ T cells (in words): p24 peptides; for cytotoxin / CTL-associated activity (in words): RT pools and peptides
Description: Briefly, 1×10^6PBMCs (freshly isolated) are stimulated with 20 μg of peptides for 6 hours in a total volume of 200 μL in a 96-well plate in presence of Golgi transport inhibitor (37° C., 5% CO2). […] Cells were stained with the LIVE/DEAD® fixable yellow dye (Invitrogen, Eugene, Oreg.). […] The flow cytometry data is collected using BD LSRII and analyzed with the FACS DIVA software.
The cells were subsequently fixed and permeabilized with Cytofix/Cytoperm solution (BD Biosciences) before reaction with anti-cytotoxin antibodies. The antibodies consisted of anti-CD3 APC-H7, anti-CD4 BD Horizon V450, and anti-CD8 FITC followed by anti-GrzB Alexa 700 and anti-GrzA PE (all from BD Biosciences), and anti-perforin PerCP (Abcam, Boston, Mass.).
as §3
Flow cytometry (FACS) for measuring CFSE-proliferation and intracellular cytokine staining (ICS).
Both analyses were performed with BD LSRII and […]™ Software (BD Biosciences), using a positive threshold of >1% CFSE^low for CFSE-proliferation except for ICS studies with threshold of >0.1% T cells expressing cytotoxin.

[4] = tested on: CD8+ T cells from HIV+ subjects; assay: Intracellular cytotoxin staining (ICS: perforin, GrzA, GrzB, CD107a), CD8+ T cells from HIV+ subjects
Description: Briefly, 1×10^6PBMCs (freshly isolated) are stimulated with 20 μg of peptides for 6 hours in a total volume of 200 μL in a 96-well plate in presence of Golgi transport inhibitor (37° C., 5% CO2). The cells are processed as previously described (Horton et al. (2007)). Cells were stained with the LIVE/DEAD® fixable yellow dye (Invitrogen, Eugene, Oreg.). The monoclonal antibodies fluorochome-conjugated to human cytokines used are: APC-H7 to CD3 (clone SK7); BD Horizon V450 to CD4 (clone RPA-T4); Qdot to CD8 (clone 3B5); PE-cy7 to IFN-γ (clone 4S.B3); APC to IL-2 (clone MQ1-17H12) PerCP to perforin (clone B-D48); Alexa F1.700 to granzyme-B (clone GB11) and PE to granzyme-A (clone CB9). The flow cytometry data is collected using BD LSRII and analyzed with the FACS DIVA software.
The ICS analysis (Horton et al. (2007)) involved stimulating 0.5-1.0×10^6 freshly isolated PBMC for 6 h with the same peptide stimulant and culture conditions as the proliferation analysis in the presence of 1 μg/mL of Golgi transport inhibitor and monensin followed by labeling with LIVE/DEAD fixable yellow dye and then treatment with anti-CD16/CD32 antibody and T-cell phenotypic antibodies. The cells were subsequently fixed and permeabilized with Cytofix/Cytoperm solution (BD Biosciences) before reaction with anti-cytotoxin antibodies. The antibodies consisted of anti-CD3 APC-H7, anti-CD4 BD Horizon V450, and anti-CD8 FITC followed by anti-GrzB Alexa 700 and anti-GrzA PE (all from BD Biosciences), and anti-perforin PerCP (Abcam, Boston, Mass.).
as §3, §4, §5

[5] = small 9-13mer peptides, yr 4, responders to Fp9 or Fp14 pool via both proliferation and IFNγ
[6] = large 13-15mer peptides, yr 2, responders to Fp9 or Fp14 pool via CFSE proliferation

| Compound | CD4^+ T-cell Responder Frequency [1, 5] | CD4^+ T-cell Responder Frequency (%) [1, 5] | CD8^+ T-cell Responder Frequency [2, 5] | CD8^+ T-cell Responder Frequency (%) [2, 5] | cytotoxin and CD107a expression in CD4+ and CD8+ T cells (in words) [3] | other results |
| --- | --- | --- | --- | --- | --- | --- |
| Fp14-3/4g (YLKQSLSIA) | 0/10 | (0) % | 6/10 | (60) % |  |  |
| AEQASQEVKN [Hp15-1c] |  |  |  |  | high cytotoxin and CD107a expression |  |
| Fp9-2/3b (APARMQCRA) | 0/9 | (0) % | 3/9 | (33) % |  |  |
| QASQEVKNWM [Hp15-1a] |  |  |  |  | high cytotoxin and CD107a expression |  |
| EQQAEARFAPARM [Fp9-1] |  |  |  |  |  | CD4^+ T-cell Responder Frequency (%) [1, 6]: (0) %; CD4^+ T-cell Responder Frequency [1, 6]: 0/7; CD8^+ T-cell Responder Frequency (%) [2, 6]: (14) %; CD8^+ T-cell Responder Frequency [2, 6]: 1/7 |
| NPWNTPVFAIKKK [F3-1] |  |  |  |  |  | cytotoxin / CTL-associated activity (in words) [3]: induced CTL-associated activities |
| VKNWMTQTL [Sp14-1a] |  |  |  |  | slightly lower number of responses |  |
| Fp14-1/2a (NTAEVKLYL) | 1/10 | (10) % | 4/10 | (40) % |  |  |
| CSCC[C@H](NC(=O)[C@H](Cc1c[nH]c2ccccc12)NC(=O)[C@H](CC(N)=O)NC(=O)[C@H](CCCCN)NC(=O)[C@@H](NC(=O)[C@H](C)NC(=O)[C@H](C)NC(=O)[C@H](CC(=O)O)NC(=O)[C@@H](N)[C@@H](C)O)C(C)C)C(=O)N[C@H](C(=O)O)[C@@H](C)O [Sp14-1c] |  |  |  |  | slightly lower number of responses |  |
| KKKSGKWRMLIDFRV [F3-3] |  |  |  |  |  | cytotoxin / CTL-associated activity (in words) [3]: induce cytotoxin expression |
| QEQNTAEVKL [Fp14-1a] |  |  |  |  | high cytotoxin and CD107a expression |  |
| LYLKQSLSI [Fp14-3/4e] |  |  |  |  | high frequency of cytotoxin expression |  |
| AEVKLYLKQSLSI [Fp14-3d] |  |  |  |  |  | Cytotoxins ([3]; responders to Fp9 or Fp14 peptide pools): Low Cytotoxins (only CD8) |
| Fp9-1/2a (EARFAPARM) | 0/9 | (0) % | 5/9 | (56) % |  |  |
| Fp14-2/3b (AEVKLYLKQ) | 1/10 | (10) % | 3/10 | (30) % |  |  |
| Fp9-3e (ARMQCRAWYL) | 1/9 | (11) % | 3/9 | (33) % |  |  |
| WRMLIDFRVLNKL [F3-4] |  |  |  |  |  | cytotoxin expression / CTL-associated activity in CD8+ T cells (in words) [4]: highest frequency and levels; cytotoxin / CTL-associated activity (in words) [3]: induced CTL-associated activities |
| IDFRVLNKLTDKGA [F3-5] |  |  |  |  |  | responder frequency of CD8+ T-cell proliferation to individual F3 peptides [2]: 3 of 8 |
| Fp14-2/3c (AEVKLYLKQSL) | 5/10 | (50) % | 9/10 | (90) % |  |  |
| QNTAEVKLYL [Fp14-1b] |  |  |  |  | high frequency of cytotoxin expression; also recorded: high cytotoxin and CD107a expression |  |
| Fp9-3f (APARMQCRAWYL) | 1/9 | (11) % | 4/9 | (44) % |  |  |
| AEARFAPARMQCRAW [Fp9-2] |  |  |  |  |  | CD4^+ T-cell Responder Frequency (%) [1, 6]: (14) %; CD4^+ T-cell Responder Frequency [1, 6]: 1/7; CD8^+ T-cell Responder Frequency (%) [2, 6]: (43) %; CD8^+ T-cell Responder Frequency [2, 6]: 3/7; Fp9 responders whose CD8+ T cells proliferate to individual 13-15mer peptide ([2]; seven Fp9 responders): 3 of 7 |
| TPVFAIKKKSGKWRM [F3-2] |  |  |  |  |  | responder frequency of CD8+ T-cell proliferation to individual F3 peptides [2]: 3 of 8 |
